# Measurements as given in ChEMBL document CHEMBL3400114, “The design, synthesis and biological evaluation of conformationally restricted 4-substituted-2,6-dimethylfuro[2,3-d]pyrimidines as multi-targeted receptor tyrosine kinase and microtubule inhibitors as potential antitumor agents” (Bioorg Med Chem, 2015).
# Tests used:
# [1] = Induction of microtubule depolymerization in rat A10 cells after 18 hrs by indirect immunofluorescence assay; type: cell-based
# [2] = Antiangiogenic activity in VEGF-165 and bFGF-stimulated chicken embryo chorioallantoic membrane assessed as inhibition of blood vessel formation after 40 hrs by microscopy; type: functional, tissue-based, Gallus gallus
# A-431 = assay: Antiproliferative activity against human A431 cells after 48 hrs by sulforhodamine B assay; type: functional, cell-based; conditions: A-431, 48 h
# [3] = target: Vascular endothelial growth factor receptor 2 (Homo sapiens, UniProt P35968); type: cell-based, U-251
# [4] = target: Platelet-derived growth factor receptor beta (Homo sapiens, UniProt P09619); assay: Inhibition of PDGFR-beta in human U251 cells compound pretreated for 60 min before PDGF-BB stimulation for 10 mins by phosphotyrosine ELISA cytoblot method; type: cell-based, U-251
# MDA-MB-435 [5] = assay: Antiproliferative activity against human MDA-MB-435 cells after 48 hrs by sulforhodamine B assay; type: functional, cell-based; conditions: MDA-MB-435, 48 h
# HeLa [6] = assay: Antiproliferative activity against human HeLa cells overexpressing wild type beta3 tubulin after 48 hrs by sulforhodamine B assay; type: functional, cell-based
# [7] = Antiproliferative activity against human SKOV3 cells overexpressing wild type beta3 tubulin after 48 hrs by sulforhodamine B assay; type: functional, cell-based; conditions: SK-OV-3, 48 h
# [8] = Antiproliferative activity against human SKOV3-MDR1-M6/6 cells overexpressing wild type beta3 tubulin after 48 hrs by sulforhodamine B assay; type: functional, cell-based; conditions: SKOV3-MDR1-M6/6, 48 h
# [9] = Growth inhibition of human SF539 cells after 48 hrs by sulforhodamine B assay; type: functional; conditions: SF-539, 48 h
# [10] = Growth inhibition of human COLO205 cells after 48 hrs by sulforhodamine B assay; type: functional; conditions: COLO 205, 48 h
# MDA-MB-468 = assay: Growth inhibition of human MDA-MB-468 cells after 48 hrs by sulforhodamine B assay; type: functional; conditions: MDA-MB-468, 48 h
# NCI-H23 = assay: Growth inhibition of human NCI-H23 cells after 48 hrs by sulforhodamine B assay; type: functional; conditions: NCI-H23, 48 h
# NCI/ADR-RES = assay: Growth inhibition of human NCI/ADR-RES cells after 48 hrs by sulforhodamine B assay; type: functional
# MDA-MB-435 [11] = assay: Growth inhibition of human MDA-MB-435 cells after 48 hrs by sulforhodamine B assay; type: functional; conditions: MDA-MB-435, 48 h
# SNB-19 = assay: Growth inhibition of human SNB19 cells after 48 hrs by sulforhodamine B assay; type: functional; conditions: SNB-19, 48 h
# CAKI-1 = assay: Growth inhibition of human Caki1 cells after 48 hrs by sulforhodamine B assay; type: functional; conditions: CAKI-1, 48 h
# HeLa [12] = assay: Antiproliferative activity against human HeLa cells after 48 hrs by sulforhodamine B assay; type: functional, cell-based
# [13] = Growth inhibition of human MOLT4 cells after 48 hrs by sulforhodamine B assay; type: functional; conditions: MOLT-4, 48 h
# NCI-H522 = assay: Growth inhibition of human NCI-H522 cells after 48 hrs by sulforhodamine B assay; type: functional; conditions: NCI-H522, 48 h
# SN12C = assay: Growth inhibition of human SN12C cells after 48 hrs by sulforhodamine B assay; type: functional
# IGROV-1 = assay: Growth inhibition of human IGROV1 cells after 48 hrs by sulforhodamine B assay; type: functional; conditions: IGROV-1, 48 h
# HOP-62 = assay: Growth inhibition of human HOP62 cells after 48 hrs by sulforhodamine B assay; type: functional; conditions: HOP-62, 48 h
# CCRF-CEM = assay: Growth inhibition of human CCRF-CEM cells after 48 hrs by sulforhodamine B assay; type: functional
# [14] = Growth inhibition of human HOP92 cells after 48 hrs by sulforhodamine B assay; type: functional; conditions: HOP-92, 48 h
# SW-620 = assay: Growth inhibition of human SW620 cells after 48 hrs by sulforhodamine B assay; type: functional; conditions: SW-620, 48 h
# [15] = Growth inhibition of human PC3 cells after 48 hrs by sulforhodamine B assay; type: functional; conditions: PC-3, 48 h
# [16] = Growth inhibition of human OVCAR5 cells after 48 hrs by sulforhodamine B assay; type: functional; conditions: OVCAR-5, 48 h
# MCF7 = assay: Growth inhibition of human MCF7 cells after 48 hrs by sulforhodamine B assay; type: functional; conditions: MCF7, 48 h
# SR = assay: Growth inhibition of human SR cells after 48 hrs by sulforhodamine B assay; type: functional
# [17] = Growth inhibition of human HCT116 cells after 48 hrs by sulforhodamine B assay; type: functional; conditions: HCT-116, 48 h
# [18] = Growth inhibition of human EKVX cells after 48 hrs by sulforhodamine B assay; type: functional
# U-251 = assay: Growth inhibition of human U251 cells after 48 hrs by sulforhodamine B assay; type: functional; conditions: U-251, 48 h
# SK-MEL-2 = assay: Growth inhibition of human SK-MEL-2 cells after 48 hrs by sulforhodamine B assay; type: functional; conditions: SK-MEL-2, 48 h
# SK-OV-3 [19] = assay: Resistance ratio of IC50 for human SKOV3-MDR1-M6/6 cells to IC50 for human SKOV3 cells; type: functional
# SNB-75 = assay: Growth inhibition of human SNB75 cells after 48 hrs by sulforhodamine B assay; type: functional; conditions: SNB-75, 48 h
# [20] = Growth inhibition of human LOXIMVI cells after 48 hrs by sulforhodamine B assay; type: functional; conditions: LOX IMVI
# ACHN = assay: Growth inhibition of human ACHN cells after 48 hrs by sulforhodamine B assay; type: functional
# SF-268 = assay: Growth inhibition of human SF268 cells after 48 hrs by sulforhodamine B assay; type: functional; conditions: SF-268, 48 h
# [21] = Growth inhibition of human OVCAR3 cells after 48 hrs by sulforhodamine B assay; type: functional; conditions: OVCAR-3, 48 h
# SK-OV-3 [22] = assay: Growth inhibition of human SKOV3 cells after 48 hrs by sulforhodamine B assay; type: functional; conditions: SK-OV-3, 48 h
# [23] = Growth inhibition of human […] cells after 48 hrs by sulforhodamine B assay; type: functional
# KM12 = assay: Growth inhibition of human KM12 cells after 48 hrs by sulforhodamine B assay; type: functional; conditions: KM12, 48 h
# SK-MEL-5 = assay: Growth inhibition of human SK-MEL-5 cells after 48 hrs by sulforhodamine B assay; type: functional; conditions: SK-MEL-5, 48 h
# [24] = Growth inhibition of human BT549 cells after 48 hrs by sulforhodamine B assay; type: functional; conditions: BT-549, 48 h
# 786-0 = assay: Growth inhibition of human 786-0 cells after 48 hrs by sulforhodamine B assay; type: functional; conditions: 786-0, 48 h
# [25] = Growth inhibition of human RXF393 cells after 48 hrs by sulforhodamine B assay; type: functional; conditions: RXF 393, 48 h
# MDA-MB-231 = assay: Growth inhibition of human MDA-MB-231 cells after 48 hrs by sulforhodamine B assay; type: functional; conditions: MDA-MB-231, 48 h
# [26] = Growth inhibition of human OVCAR8 cells after 48 hrs by sulforhodamine B assay; type: functional; conditions: OVCAR-8, 48 h
# [27] = Growth inhibition of human OVCAR4 cells after 48 hrs by sulforhodamine B assay; type: functional; conditions: OVCAR-4, 48 h
# [28] = Growth inhibition of human Hs 578T cells after 48 hrs by sulforhodamine B assay; type: functional
# NCI-H226 = assay: Growth inhibition of human NCI-H226 cells after 48 hrs by sulforhodamine B assay; type: functional; conditions: NCI-H226, 48 h
# [29] = Growth inhibition of human SF295 cells after 48 hrs by sulforhodamine B assay; type: functional; conditions: SF-295, 48 h
# HT-29 = assay: Growth inhibition of human HT-29 cells after 48 hrs by sulforhodamine B assay; type: functional; conditions: HT-29, 48 h
# [30] = Ratio of EC50 for microtubule depolymerization in rat A10 cells to IC50 for human MDA-MB-435 cells
# M14 = assay: Growth inhibition of human M14 cells after 48 hrs by sulforhodamine B assay; type: functional; conditions: M14, 48 h
# [31] = Growth inhibition of human UACC62 cells after 48 hrs by sulforhodamine B assay; type: functional; conditions: UACC-62, 48 h
# DU-145 = assay: Growth inhibition of human DU145 cells after 48 hrs by sulforhodamine B assay; type: functional; conditions: DU-145, 48 h
# HL-60(TB) = assay: Growth inhibition of human HL-60(TB) cells after 48 hrs by sulforhodamine B assay; type: functional; conditions: HL-60, 48 h
# TK-10 = assay: Growth inhibition of human TK10 cells after 48 hrs by sulforhodamine B assay; type: functional; conditions: TK-10, 48 h
# HeLa [32] = assay: Resistance ratio of IC50 for human HeLa cells overexpressing wild type beta3 tubulin to IC50 for human HeLa cells; type: functional
# K562 = assay: Growth inhibition of human K562 cells after 48 hrs by sulforhodamine B assay; type: functional; conditions: K562, 48 h
# NCI-H460 = assay: Growth inhibition of human NCI-H460 cells after 48 hrs by sulforhodamine B assay; type: functional; conditions: NCI-H460, 48 h
# [33] = Growth inhibition of human HCT15 cells after 48 hrs by sulforhodamine B assay; type: functional; conditions: HCT-15, 48 h
# Vascular endothelial growth factor receptor 2, sequence (P35968 whole entry): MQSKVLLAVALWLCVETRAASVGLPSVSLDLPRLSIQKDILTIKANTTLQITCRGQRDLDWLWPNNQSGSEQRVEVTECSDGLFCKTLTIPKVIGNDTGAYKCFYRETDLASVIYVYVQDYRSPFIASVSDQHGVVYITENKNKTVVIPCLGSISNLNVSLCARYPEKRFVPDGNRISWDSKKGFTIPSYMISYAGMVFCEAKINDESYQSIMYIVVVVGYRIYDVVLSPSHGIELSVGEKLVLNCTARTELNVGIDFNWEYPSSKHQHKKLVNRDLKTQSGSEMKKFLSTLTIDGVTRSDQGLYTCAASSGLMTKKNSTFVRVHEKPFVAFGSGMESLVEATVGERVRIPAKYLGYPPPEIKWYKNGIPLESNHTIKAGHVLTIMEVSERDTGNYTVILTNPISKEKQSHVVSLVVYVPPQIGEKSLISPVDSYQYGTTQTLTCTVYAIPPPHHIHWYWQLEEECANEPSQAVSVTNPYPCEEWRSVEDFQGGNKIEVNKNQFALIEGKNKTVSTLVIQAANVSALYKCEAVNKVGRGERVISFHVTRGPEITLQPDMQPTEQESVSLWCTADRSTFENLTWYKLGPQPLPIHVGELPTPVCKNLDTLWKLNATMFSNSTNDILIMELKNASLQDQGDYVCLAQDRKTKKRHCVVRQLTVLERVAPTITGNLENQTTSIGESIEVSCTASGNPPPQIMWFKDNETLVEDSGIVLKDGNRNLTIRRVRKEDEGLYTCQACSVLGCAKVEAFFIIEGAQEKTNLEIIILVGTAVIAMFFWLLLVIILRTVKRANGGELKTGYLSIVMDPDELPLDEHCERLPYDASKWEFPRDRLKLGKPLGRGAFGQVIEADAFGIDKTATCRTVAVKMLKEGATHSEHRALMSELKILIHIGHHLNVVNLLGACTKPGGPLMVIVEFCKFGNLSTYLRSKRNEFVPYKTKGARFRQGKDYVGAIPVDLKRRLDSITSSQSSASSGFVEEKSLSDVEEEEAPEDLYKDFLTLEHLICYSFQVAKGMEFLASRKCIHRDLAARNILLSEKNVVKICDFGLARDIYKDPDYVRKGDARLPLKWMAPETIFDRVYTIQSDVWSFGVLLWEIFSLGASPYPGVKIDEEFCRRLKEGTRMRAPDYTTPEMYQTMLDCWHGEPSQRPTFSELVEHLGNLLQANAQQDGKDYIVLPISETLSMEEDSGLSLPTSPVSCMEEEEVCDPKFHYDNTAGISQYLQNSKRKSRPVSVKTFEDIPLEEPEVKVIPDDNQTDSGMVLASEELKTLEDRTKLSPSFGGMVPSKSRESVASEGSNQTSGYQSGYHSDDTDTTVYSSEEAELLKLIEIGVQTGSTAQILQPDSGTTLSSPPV
# Platelet-derived growth factor receptor beta, sequence (P09619 whole entry): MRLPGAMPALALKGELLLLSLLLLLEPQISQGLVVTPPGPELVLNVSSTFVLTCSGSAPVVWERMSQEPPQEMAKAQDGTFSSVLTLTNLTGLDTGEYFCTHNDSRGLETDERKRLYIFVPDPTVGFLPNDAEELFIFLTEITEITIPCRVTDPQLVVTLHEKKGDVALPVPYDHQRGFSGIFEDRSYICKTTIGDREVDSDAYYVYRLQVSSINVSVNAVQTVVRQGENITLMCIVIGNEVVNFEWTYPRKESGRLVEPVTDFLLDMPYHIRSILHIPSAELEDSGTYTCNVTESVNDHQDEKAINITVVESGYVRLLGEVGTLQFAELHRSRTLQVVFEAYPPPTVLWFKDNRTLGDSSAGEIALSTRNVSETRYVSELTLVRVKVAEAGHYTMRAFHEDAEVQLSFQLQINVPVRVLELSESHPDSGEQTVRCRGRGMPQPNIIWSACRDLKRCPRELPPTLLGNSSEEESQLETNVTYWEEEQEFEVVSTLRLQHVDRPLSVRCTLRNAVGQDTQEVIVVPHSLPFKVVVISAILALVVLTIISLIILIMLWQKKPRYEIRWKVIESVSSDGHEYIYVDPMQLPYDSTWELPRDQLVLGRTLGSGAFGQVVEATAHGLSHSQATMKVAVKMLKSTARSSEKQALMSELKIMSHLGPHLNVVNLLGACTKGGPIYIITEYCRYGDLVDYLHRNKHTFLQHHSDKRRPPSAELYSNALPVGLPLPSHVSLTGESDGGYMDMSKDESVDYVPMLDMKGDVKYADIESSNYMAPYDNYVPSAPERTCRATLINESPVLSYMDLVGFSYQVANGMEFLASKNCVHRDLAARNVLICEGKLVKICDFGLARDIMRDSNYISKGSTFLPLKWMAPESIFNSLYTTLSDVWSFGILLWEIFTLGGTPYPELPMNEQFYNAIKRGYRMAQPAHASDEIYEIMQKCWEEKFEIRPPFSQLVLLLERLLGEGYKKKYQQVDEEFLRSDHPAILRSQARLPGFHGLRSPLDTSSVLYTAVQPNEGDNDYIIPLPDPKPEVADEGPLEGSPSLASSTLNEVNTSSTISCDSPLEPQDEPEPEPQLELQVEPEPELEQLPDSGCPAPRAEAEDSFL
compound,measurement,setting,value
COc1ccc2c(ccn2-c2nc(C)nc3oc(C)cc23)c1,EC50,[1],> 10 µM
same,IC50,[2],> 300 µM
same,IC50,A-431,> 300 nM
Cc1nc(N(C)c2ccc3c(c2)OCO3)c2cc(C)oc2n1,EC50,[1],> 10 µM
same,IC50,[2],38.2 µM
same,IC50,A-431,48.9 nM
COc1cc(N(C)c2nc(C)nc3oc(C)cc23)cc(OC)c1OC,EC50,[1],> 10 µM
same,IC50,[2],> 300 µM
same,IC50,A-431,> 300 nM
COc1ccc(N(C)c2nc(C)nc3oc(C)cc23)c(OC)c1,IC50,[3],32.3 nM
same,IC50,[4],40.4 nM
same,IC50,A-431,17.1 nM
CC(=O)O[C@H]1C(=O)[C@@]2(C)[C@H]([C@H](OC(=O)c3ccccc3)[C@]3(O)C[C@H](OC(=O)[C@H](O)[C@@H](NC(=O)c4ccccc4)c4ccccc4)C(C)=C1C3(C)C)[C@]1(OC(C)=O)CO[C@@H]1C[C@@H]2O [PACLITAXEL],IC50,MDA-MB-435 [5],3.3 nM
same,IC50,HeLa [6],32.9 nM
same,IC50,[7],6.3 nM
COc1ccc(/C=C\c2cc(OC)c(OC)c(OC)c2)cc1O [COMBRETASTATIN A4],EC50,[1],0.0098 µM
same,IC50,MDA-MB-435 [5],5 nM
same,IC50,[7],6.9 nM
same,IC50,[8],3 nM
Cc1nc(N(C)c2ccc3c(c2)CCO3)c2cc(C)oc2n1,GI50,[9],31.6 nM
same,GI50,[10],40.3 nM
same,GI50,MDA-MB-468,22.1 nM
same,GI50,NCI-H23,43.9 nM
same,GI50,NCI/ADR-RES,26.5 nM
same,GI50,MDA-MB-435 [11],14 nM
same,GI50,SNB-19,56.5 nM
same,GI50,CAKI-1,40.1 nM
same,IC50,HeLa [12],105 nM
same,GI50,[13],76.7 nM
same,GI50,NCI-H522,12.9 nM
same,EC50,[1],0.606 µM
same,GI50,SN12C,97.2 nM
same,GI50,IGROV-1,62.9 nM
same,GI50,HOP-62,39.6 nM
same,IC50,MDA-MB-435 [5],96.2 nM
same,GI50,CCRF-CEM,58.1 nM
same,GI50,[14],45.8 nM
same,GI50,SW-620,41.6 nM
same,GI50,[15],52.2 nM
same,GI50,[16],262 nM
same,GI50,MCF7,40.2 nM
same,GI50,SR,36.6 nM
same,GI50,[17],45.1 nM
same,GI50,[18],70 nM
same,GI50,U-251,39.7 nM
same,GI50,SK-MEL-2,26.4 nM
same,Ratio IC50,SK-OV-3 [19],1.3
same,IC50,HeLa [6],94 nM
same,GI50,SNB-75,30.4 nM
same,GI50,[20],45.6 nM
same,GI50,ACHN,64.2 nM
same,GI50,SF-268,13.9 nM
same,GI50,[21],24.5 nM
same,GI50,SK-OV-3 [22],37.6 nM
same,GI50,[23],54.2 nM
same,GI50,KM12,40.1 nM
same,GI50,SK-MEL-5,31.4 nM
same,GI50,[24],77.2 nM
same,GI50,786-0,80.4 nM
same,GI50,[25],21.2 nM
same,IC50,[2],14 µM
same,GI50,MDA-MB-231,148 nM
same,GI50,[26],63 nM
same,IC50,[7],120 nM
same,GI50,[27],83.4 nM
same,GI50,[28],31 nM
same,GI50,NCI-H226,162 nM
same,GI50,[29],30.5 nM
same,GI50,HT-29,32.4 nM
same,Ratio,[30],6
same,GI50,M14,34.8 nM
same,GI50,[31],61.3 nM
same,GI50,DU-145,44.1 nM
same,GI50,HL-60(TB),27.6 nM
same,IC50,A-431,38.3 nM
same,GI50,TK-10,50.2 nM
same,Ratio IC50,HeLa [32],0.9
same,GI50,K562,31.7 nM
same,GI50,NCI-H460,42 nM
same,IC50,[8],155 nM
same,GI50,[33],38.9 nM
COc1ccc(N(C)c2nc(C)nc3oc(C)cc23)cc1OC,IC50,A-431,9.7 nM
COc1ccc2c(c1)CCN2c1nc(C)nc2oc(C)cc12,EC50,[1],> 10 µM
same,IC50,A-431,42.2 nM
